Read-outs that look alike come from different tables or passages of the source.
Key:
[1] = test system: human DHCR7; assay: Genome editing after zinc sulfate treatment, HEK293, T7E1 assay; type: cell-based; conditions: for % indels: +RNP
Procedure: (§1) The concentrations of 80 mM 160 mM of zinc sulfate were treated in HEK293 with Cas9 variants. HEK293 cells were harvested at 12 h, 24 h, and 48 h after zinc sulfate treatment. In terms of RNP treatment, HEK293 cells were harvested at 24 h, 36 h, and 60 h.
as §1
Cell culture. HEK 293 cells were maintained in DMEM media with 10% Fetal bovine serum FBS and P/S, at 37° C. in CO2 incubator. 150,000 cells were transferred to a 24 well plate in […] of the growth medium a day before transfection.
Transfection. For Cas9 variants transfection to the cells, purified each Cas9 variant protein was added to up to […] of Opti-MEM serum reduced medium in a micro tube, followed by addition of 120 ng guide RNA. The molar ratio of the guide RNA to Cas9 protein was kept nearly at 1.2:1 ratio(1). The mixture, then, mixed well by gentle tapping and incubated for 10 min at RT. In a separate tube. […] of Lipofectamin 3000 transfection reagent was added to […] of Opti-MEM and […] of the diluted transfection reagent was added to the guide RNA and Cas9 protein mixture, followed by incubation for 15 min at RT and […] mixture was added to the cells.
Genomic DNA extraction. […] Briefly cells were washed with PBS once and treated with T.E., followed by incubation at 37, for 5 min. 1.2 ml of growth media were added to cells to harvest cell and then, spin downed at RT, 250×g, for 5 min.
Amplification of genomic loci of human DHCR7. For amplification of genomic loci of human DHCR7, two different PCR primer pairs were used. […] Genomic DNA was amplified using specific primers and cleaned up using Wizard® SV gel and PCR clean-Up system. 200 ng PCR cleaned-up amplified DNA was added in a PCR-tube, followed by addition of […] of NEB buffer 2 with up to 9 ml of distilled water (D/W). The mixture was then re-annealed in a PCR machine using following condition: 98° C. for 5 min for denaturation; cooling down to 85° C. at −2° C./sec, in turn, to 25° C. at −0.1/sec and kept at 4° C., in order to prevent denaturation of heteroduplex formation of the amplified DNA. […] of T7E1 endonuclease was added to the mixture and incubated at 37° C. for 60 min.
Image Analysis. For analysis of gene modification, 2% gel was used image was obtained with and Alphaimager 2200 image analysis software was used for analysis. % indel was computed with following equation: 1−((1-fraction cleaved) ½)(2).

[2] = test system: HEK293 cells
Procedure: 1.0×10^5 cells were in the 24 well plate.
Cell culture. HEK 293 cells were maintained in DMEM media with 10% Fetal bovine serum FBS and P/S, at 37° C. in CO2 incubator. 150,000 cells were transferred to a 24 well plate in 50 ml of the growth medium a day before transfection.

[3] = test system: PCR dsDNA product; assay: SpCas9 activity with 1 mM ZnSO4 / Mg2+ deficiency at different pH; type: biochemical; conditions: 1 mM ZnSO4, range of pH values
Procedure: For DNA (50 ng) NbFTa13_4 PCR product, 3 μl (150 ng) was used; for SpCas9-BPNLS (3.3 μg) 1/10 dilution (333 ng), 1.5 μl (0.5 μg) was used; for gRNA (1.5 μg) (NbFTa13_3/4-2), 1/10 dilution (150 ng), 3.5 μg (500 ng) was used; for pH (+1 mM ZnSO4, 2× cutsmart), 10 μl was used; for DW, to 20 μl was used.
For PCR dsDNA product, 150 ng was used; for SpCas9:BPNLS, 1 μg was used; for gRNA, 500 ng was used; for pH titration (100 mM NaCal, 50 mM Tris-HCl+1 mM ZnSO4), 10 ul was used, for DW, up to 20 μl was used.
Activity of SpCas9 and SpCas9-mungbean nuclease chimeric polypeptide was tested in the presence of 1 mM ZnSO4 at a range of pHs.

[4] = test system: HEK293 cells and plant protoplasts; assay: Summary of knock-out / knock-in performance (HEK293 cells and plant protoplasts); type: cell-based; conditions: in vitro and in vivo HEK293 cells
Text: The apparent rates of mutations after the action of CRISPR genome editing tools are relatively low in vivo due to outperformance of error-free repair mechanisms. To enhance both the rate of indel mutation and HR recombination, genome editing tools were constructed by translational fusion of DNA modifying enzymes (DME), DNA binding protein (DBP), or terminal deoxyribonucleotidyl transferase (TdT) at either upstream or downstream of CRISPR genome editing enzymes. In one embodiment, a variant irreversibly deleted the DNA at the CRISPR enzyme-dependent double strand break sites in 5′->3′ direction, and the resulting modified ends with 3′-OH overhang can better serve HR repairs in presence of repair template. Disclosed herein are constructs that display functional enhancement of the CRISPR-Cas enzymes. […] Fifth, off-target effects in Cas9-RecJ embodied the similar efficiency to Cas9 off-targeting in whole genome sequencing and targeted deep sequencing. […] FIG. 74-FIG. 125 show said new genome editing fusion constructs, knock-out and knock-in efficiency and percent change in efficiency over a control.
The apparent rates of mutations after the action of CRISPR genome editing tools are relatively low in vivo due to outperformance of error-free repair mechanisms. […]

[5] = test system: PCR product (901 bp SpyCas9; 1,431 bp FnCpf1); assay: Inactivation of SpyCas9 and FnCpf1 by stop solution / 1 mM ZnSO4, in vitro cleavage time course; type: biochemical

`O=S(=O)([O-])[O-].[Zn+2]` [ZnSO4, zinc sulfate] was tested, and the “% indels” value ([1]; 80 ZnSO4 (mM) at 12 h, harvest 24 h) was 2.9%, the “% indels” value ([1]; 80 ZnSO4 (mM) at 12 h, harvest 60 h) was 5.4% and the “% indels” value ([1]; 160 ZnSO4 (mM) at 12 h, harvest 24 h) was 1.8%. The “% indels” value ([1]; 160 ZnSO4 (mM) at 12 h, harvest 36 h) was 2.7%, the “% indels” value ([1]; 160 ZnSO4 (mM) at 12 h, harvest 60 h) was 5.8% and the “modified dsDNA detected via T7E1 assay” value ([1]; 48 h hpt with RNP, 80 μM ZnSO4 at 24 hpt, direct) was 12.62%. For the same compound, the “modified dsDNA detected via T7E1 assay” value ([1]; 48 h hpt with RNP, 80 μM ZnSO4 at 24 hpt, media exchange) was 9.86%, the “modified dsDNA detected via T7E1 assay” value ([1]; 48 h hpt with RNP, 160 μM ZnSO4 at 24 hpt, direct) was 3.68% and the “modified dsDNA detected via T7E1 assay” value ([1]; 48 h hpt with RNP, 160 μM ZnSO4 at 24 hpt, media exchange) was 4.96%. For the same compound, the “modified dsDNA detected via T7E1 assay” value ([1]; 72 h hpt with RNP, 80 μM ZnSO4 at 24 hpt, direct) was 2.8%, the “modified dsDNA detected via T7E1 assay” value ([1]; 72 h hpt with RNP, 80 μM ZnSO4 at 24 hpt, media exchange) was 9.32% and the “modified dsDNA detected via T7E1 assay” value ([1]; 72 h hpt with RNP, 160 μM ZnSO4 at 24 hpt, direct) was 1.87%. The “modified dsDNA detected via T7E1 assay” value ([1]; 72 h hpt with RNP, 160 μM ZnSO4 at 24 hpt, media exchange) was 1.41%, the “genome editing efficacy after zinc sulfate treatment” value ([1]; HEK293 with Cas9 variants) was “reduced” and the HEK293 cell survival ([2]; 0 to 120 mM zinc sulfate) was “allowed HEK293 cell to survive”. The HEK293 cell survival ([2]; 160 mM and 200 mM zinc sulfate) was “did not allow HEK293 live well without toxicity effect”, the “abolished Cas9 activity” value [3] was “up to 90%” and the “quenching of Cas9 activity” value [4] was “effectively quenched Cas9 activity”. For the same compound, the “uncut dsDNAs not digested any more after ZnSO4 treatment” value [5] was 65%.
